Results from patent publication US20080269304A1, “Parakeratosis inhibitor, pore-shrinking agent and skin preparation for external use” (priority 2002, published 2008).

Experiments:
[1] = system: parakeratosis caused by oleic acid; test: Test on parakeratosis inhibitory action (oleic acid applied on the back of a hairless mouse); type: in vivo; conditions: for Incidence of Parakeratosis (Average of 4 mice): 100 μL, 3 days, grades of 1 to 4; for Effect on parakeratosis caused by oleic acid (in words): summary of Tables 2 and 3, hairless mouse
Method: An aqueous solution containing 3% each of GABA, glycine, D-glutamic acid and L-glutamic acid was prepared, and pH of each solution was adjusted to nutrality, if necessary. An aqueous solution containing 10 mM each of GABA, bicuculline methobromide (antagonist to GABA receptor type A), MK-801, muscimol, isogubacin, ATP, suramin, PPADS and TNP-ATP was also prepared.
Thereafter, 100 μL of sample solution or reference solution was applied. This procedure was repeated for 3 days, and the keratin layer on the back was peeled with a tape. The nucleus of the keratin layer was stained with hematoxylin, the number of nuclear cells was counted under a microscope, and the results were evaluated in four grades of 1 to 4.

[2] = system: pores; test: Test on pore-shrinking action (replicas of cheek pores); conditions: for Decision of Replica of Pores (Average of n = 5): 3% sample solution on cheek twice a day for 1 month, difference of scores (13 grades of 1 to 13) before and after the test; for Pore-shrinking effect (in words): summary of Table 4, 3% solutions
[3] = system: Epidermal keratinocyte; test: Excitatory action test of cells with oleic acid (intracellular calcium, fura-2-AM); type: cell-based; conditions: summary of Table 1
Method: Epidermal keratinocyte was cultivated on an appropriate medium, for example, KGM medium, according to the conventional method. The cultured cells were seeded on a cover glass chamber and cultivated there a day before measuring calcium ions. An appropriate buffer solution, for example BSS (balanced salt solution) and a calcium sensitive fluorescent pigment (fura-2-AM) were added in the cultured cell at a concentration of about 2 μM on the next day, and the fluorescent pigment was allowed to be incorporated into the cell by incubating under an appropriate condition (for example 30 minutes at 37° C.). After completing intake of the pigment, the same buffer solution (fresh BSS) was added. […] The same measurement was carried out by adding only the same buffer solution (BSS). The fluorescence intensity at 340 nm was divided by the fluorescence intensity at 380 nm for determining the calcium concentration according to the conventional method.

[4] = Application Test of 3% Oleic Acid Solution, sample 10 mM, water reference 2.0
[5] = Application Test of 30% Oleic Acid Solution, sample 3% solution, water reference 2.5

| Molecule | Incidence of Parakeratosis (Average of 4 mice) [1, 4] | Effect on parakeratosis caused by oleic acid (in words) [1] | Incidence of Parakeratosis (Average of 4 mice) [1, 5] | Decision of Replica of Pores (Average of n = 5) [2] | Pore-shrinking effect (in words) [2] | Excitatory function of the cell (in words) [3] |
| --- | --- | --- | --- | --- | --- | --- |
| Nc1ncnc2c1ncn2[C@@H]1O[C@H](COP(=O)(O)OP(=O)(O)OP(=O)(O)O)[C@@H](O)[C@H]1O [ATP] | 2.3 | worsens parakeratos is |  |  |  |  |
| C[N+]1(C)CCc2cc3c(cc2[C@H]1[C@@H]1OC(=O)c2c1ccc1c2OCO1)OCO3.[Br-] [bicuculline methobromide] |  | inhibited parakeratosis inhibitory action |  |  |  |  |
| NCC(=O)O [Glycine, glycine] |  | improved parakeratosis | 1.3 | −1.2 | excellent pore-shrinking effects |  |
| N[C@H](CCC(=O)O)C(=O)O [D-Glutamic Acid, D-glutamic acid] |  | improved parakeratosis | 2.0 | −0.4 | excellent pore-shrinking effects |  |
| NCCCC(=O)O [GABA, γ-aminobutyric acid] | 1.5 | improved parakeratosis | 1.5 | −1.0 | excellent pore-shrinking effects |  |
| CCCCCCCC/C=C\CCCCCCCC(=O)O [Oleic Acid, oleic acid] |  |  |  |  |  | has an excitatory function |
| Cc1nc(N=Nc2ccc(S(=O)(=O)O)cc2S(=O)(=O)O)c(COP(=O)(O)O)c(C=O)c1O [PPADS, pyridoxal phosphate-6-azophenyl-2′,4′-disulfonic acid] | 1.8 | improved parakeratosis |  |  |  |  |
| Cc1ccc(C(=O)Nc2ccc(S(=O)(=O)O)c3cc(S(=O)(=O)O)cc(S(=O)(=O)O)c23)cc1NC(=O)c1cccc(NC(=O)Nc2cccc(C(=O)Nc3cc(C(=O)Nc4ccc(S(=O)(=O)O)c5cc(S(=O)(=O)O)cc(S(=O)(=O)O)c45)ccc3C)c2)c1 [Suramin, suramin] | 1.5 | improved parakeratosis |  |  |  |  |
| C[C@]12N[C@H](Cc3ccccc31)c1ccccc12 [MK-801, dizocylpin] | 1.0 | improved parakeratosis |  |  |  |  |
| O=C(O)C1=CCNCC1 [Isogubacin, isogubacin] | 1.3 | improved parakeratosis |  |  |  |  |
| trinitrophenyl-ATP [TNP-ATP] | 1.5 | improved parakeratosis |  |  |  |  |
| NCc1cc(=O)[nH]o1 [Muscimol, muscimol] | 1.3 | improved parakeratosis |  |  |  |  |
| N[C@@H](CCC(=O)O)C(=O)O [L-Glutamic Acid, L-glutamic acid] |  | worsens parakeratosis | 3.0 |  |  |  |
